{
  "source": "PubChem BioAssay AID2060898",
  "about": "(Molecular Pharmacology Branch, DTP, NCI, 2025)",
  "system": "616215-338-R-J1-PDC complex spheroid viability",
  "experiment": "Anticancer human tumor 616215-338-R-J1-PDC patient-derived colon adenocarcinoma cell line growth inhibition [RAS]",
  "details": "for IC50: curve of first compound; for viability, T/C: stronger effect = lower value",
  "procedure,_shortened": "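Tumour cells grown as complex spheroids with HUVEC endothelial cells and mesenchymal stem cells, treated with RAS pathway inhibitor combinations. Each agent spans half-log steps from near clinical Cmax, or 10 microM where Cmax is unknown.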",
  "data": [
    {"compound": "CCC(CC)c1cc(NC2CCC(N)C2)n2nccc2n1", "note": "(centres undefined) + C=CC(=O)N1CCN(c2nc(OCC3CCCN3C)nc3c(F)c(-c4nc(N)cc(C)c4C(F)(F)F)c(Cl)cc23)C(C)C1;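 note: spheroids exposed to agents for seven days before viability readout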;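 for viability, T/C: 100% = DMSO vehicle control viability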", "values": [
      {"measurement": "IC50", "setting": "second compound 0.00316 µM", "result": 1.77, "unit": "µM"},
      {"measurement": "IC50", "setting": "second compound 0.01 µM", "result": 1.8, "unit": "µM"},
      {"measurement": "IC50", "setting": "second compound 0.0316 µM", "result": 1.79, "unit": "µM"},
      {"measurement": "IC50", "setting": "second compound 0.1 µM", "result": 1.78, "unit": "µM"},
      {"measurement": "IC50", "setting": "second compound 0.316 µM", "result": 1.8, "unit": "µM"},
      {"measurement": "IC50", "setting": "second compound 1 µM", "result": 1.86, "unit": "µM"},
      {"measurement": "viability, T/C", "setting": "second compound 0.00316 µM, first compound 0.0316 µM", "result": 101, "unit": "%"},
      {"measurement": "viability, T/C", "setting": "second compound 0.00316 µM, first compound 0.1 µM", "result": 97.5, "unit": "%"},
      {"measurement": "viability, T/C", "setting": "second compound 0.00316 µM, first compound 0.316 µM", "result": 92.6, "unit": "%"},
      {"measurement": "viability, T/C", "setting": "second compound 0.00316 µM, first compound 1 µM", "result": 97.8, "unit": "%"},
      {"measurement": "viability, T/C", "setting": "second compound 0.00316 µM, first compound 3.16 µM", "result": 0.65, "unit": "%"},
      {"measurement": "viability, T/C", "setting": "second compound 0.00316 µM, first compound 10 µM", "result": 2.31, "unit": "%"},
      {"measurement": "viability, T/C", "setting": "second compound 0.01 µM, first compound 0.0316 µM", "result": 100, "unit": "%"},
      {"measurement": "viability, T/C", "setting": "second compound 0.01 µM, first compound 0.1 µM", "result": 102, "unit": "%"},
      {"measurement": "viability, T/C", "setting": "second compound 0.01 µM, first compound 0.316 µM", "result": 96.6, "unit": "%"},
      {"measurement": "viability, T/C", "setting": "second compound 0.01 µM, first compound 1 µM", "result": 102, "unit": "%"},
      {"measurement": "viability, T/C", "setting": "second compound 0.01 µM, first compound 3.16 µM", "result": 0.87, "unit": "%"},
      {"measurement": "viability, T/C", "setting": "second compound 0.01 µM, first compound 10 µM", "result": 2.95, "unit": "%"},
      {"measurement": "viability, T/C", "setting": "second compound 0.0316 µM, first compound 0.0316 µM", "result": 108, "unit": "%"},
      {"measurement": "viability, T/C", "setting": "second compound 0.0316 µM, first compound 0.1 µM", "result": 100, "unit": "%"},
      {"measurement": "viability, T/C", "setting": "second compound 0.0316 µM, first compound 0.316 µM", "result": 90.2, "unit": "%"},
      {"measurement": "viability, T/C", "setting": "second compound 0.0316 µM, first compound 1 µM", "result": 105, "unit": "%"},
      {"measurement": "viability, T/C", "setting": "second compound 0.0316 µM, first compound 3.16 µM", "result": 0.34, "unit": "%"},
      {"measurement": "viability, T/C", "setting": "second compound 0.0316 µM, first compound 10 µM", "result": 0.25, "unit": "%"},
      {"measurement": "viability, T/C", "setting": "second compound 0.1 µM, first compound 0.0316 µM", "result": 103, "unit": "%"},
      {"measurement": "viability, T/C", "setting": "second compound 0.1 µM, first compound 0.1 µM", "result": 95.2, "unit": "%"},
      {"measurement": "viability, T/C", "setting": "second compound 0.1 µM, first compound 0.316 µM", "result": 96.9, "unit": "%"},
      {"measurement": "viability, T/C", "setting": "second compound 0.1 µM, first compound 1 µM", "result": 104, "unit": "%"},
      {"measurement": "viability, T/C", "setting": "second compound 0.1 µM, first compound 3.16 µM", "result": 0.59, "unit": "%"},
      {"measurement": "viability, T/C", "setting": "second compound 0.1 µM, first compound 10 µM", "result": 0.27, "unit": "%"},
      {"measurement": "viability, T/C", "setting": "second compound 0.316 µM, first compound 0.0316 µM", "result": 107, "unit": "%"},
      {"measurement": "viability, T/C", "setting": "second compound 0.316 µM, first compound 0.1 µM", "result": 90.1, "unit": "%"},
      {"measurement": "viability, T/C", "setting": "second compound 0.316 µM, first compound 0.316 µM", "result": 101, "unit": "%"},
      {"measurement": "viability, T/C", "setting": "second compound 0.316 µM, first compound 1 µM", "result": 105, "unit": "%"},
      {"measurement": "viability, T/C", "setting": "second compound 0.316 µM, first compound 3.16 µM", "result": 1.41, "unit": "%"},
      {"measurement": "viability, T/C", "setting": "second compound 0.316 µM, first compound 10 µM", "result": 1.72, "unit": "%"},
      {"measurement": "viability, T/C", "setting": "second compound 1 µM, first compound 0.0316 µM", "result": 106, "unit": "%"},
      {"measurement": "viability, T/C", "setting": "second compound 1 µM, first compound 0.1 µM", "result": 106, "unit": "%"},
      {"measurement": "viability, T/C", "setting": "second compound 1 µM, first compound 0.316 µM", "result": 96.5, "unit": "%"},
      {"measurement": "viability, T/C", "setting": "second compound 1 µM, first compound 1 µM", "result": 114, "unit": "%"},
      {"measurement": "viability, T/C", "setting": "second compound 1 µM, first compound 3.16 µM", "result": 2.76, "unit": "%"},
      {"measurement": "viability, T/C", "setting": "second compound 1 µM, first compound 10 µM", "result": 2.4, "unit": "%"}
    ]},
    {"compound": "Cc1nc(N2CCC3(CC2)COC(C)C3N)c(CO)nc1Sc1ccnc(N)c1Cl", "note": "(centres undefined) + CCn1c(-c2cc(N3CCN(C)CC3)cnc2C(C)OC)c2c3cc(ccc31)-c1csc(n1)CC(NC(=O)C1CC1C)C(=O)N1CCCC(N1)C(=O)OCC(C)(C)C2", "values": [
      {"measurement": "IC50", "setting": "second compound 0.000949 µM", "result": "> 10", "unit": "µM"},
      {"measurement": "IC50", "setting": "second compound 0.003 µM", "result": 1.67, "unit": "µM"},
      {"measurement": "IC50", "setting": "second compound 0.00949 µM", "result": 0.214, "unit": "µM"},
      {"measurement": "IC50", "setting": "second compound 0.03 µM", "result": "< 0.0316", "unit": "µM"},
      {"measurement": "IC50", "setting": "second compound 0.0949 µM", "result": "< 0.0316", "unit": "µM"},
      {"measurement": "IC50", "setting": "second compound 0.3 µM", "result": "< 0.0316", "unit": "µM"},
      {"measurement": "viability, T/C", "setting": "second compound 0.000949 µM, first compound 0.0316 µM", "result": 123, "unit": "%"},
      {"measurement": "viability, T/C", "setting": "second compound 0.000949 µM, first compound 0.1 µM", "result": 106, "unit": "%"},
      {"measurement": "viability, T/C", "setting": "second compound 0.000949 µM, first compound 0.316 µM", "result": 85.6, "unit": "%"},
      {"measurement": "viability, T/C", "setting": "second compound 0.000949 µM, first compound 1 µM", "result": 75.6, "unit": "%"},
      {"measurement": "viability, T/C", "setting": "second compound 0.000949 µM, first compound 3.16 µM", "result": 63.1, "unit": "%"},
      {"measurement": "viability, T/C", "setting": "second compound 0.000949 µM, first compound 10 µM", "result": 61.9, "unit": "%"},
      {"measurement": "viability, T/C", "setting": "second compound 0.003 µM, first compound 0.0316 µM", "result": 118, "unit": "%"},
      {"measurement": "viability, T/C", "setting": "second compound 0.003 µM, first compound 0.1 µM", "result": 92.5, "unit": "%"},
      {"measurement": "viability, T/C", "setting": "second compound 0.003 µM, first compound 0.316 µM", "result": 66.4, "unit": "%"},
      {"measurement": "viability, T/C", "setting": "second compound 0.003 µM, first compound 1 µM", "result": 49.7, "unit": "%"},
      {"measurement": "viability, T/C", "setting": "second compound 0.003 µM, first compound 3.16 µM", "result": 54.9, "unit": "%"},
      {"measurement": "viability, T/C", "setting": "second compound 0.003 µM, first compound 10 µM", "result": 39.1, "unit": "%"},
      {"measurement": "viability, T/C", "setting": "second compound 0.00949 µM, first compound 0.0316 µM", "result": 71, "unit": "%"},
      {"measurement": "viability, T/C", "setting": "second compound 0.00949 µM, first compound 0.1 µM", "result": 55.4, "unit": "%"},
      {"measurement": "viability, T/C", "setting": "second compound 0.00949 µM, first compound 0.316 µM", "result": 46.9, "unit": "%"},
      {"measurement": "viability, T/C", "setting": "second compound 0.00949 µM, first compound 1 µM", "result": 42.6, "unit": "%"},
      {"measurement": "viability, T/C", "setting": "second compound 0.00949 µM, first compound 3.16 µM", "result": 44.2, "unit": "%"},
      {"measurement": "viability, T/C", "setting": "second compound 0.00949 µM, first compound 10 µM", "result": 38, "unit": "%"},
      {"measurement": "viability, T/C", "setting": "second compound 0.03 µM, first compound 0.0316 µM", "result": 43.8, "unit": "%"},
      {"measurement": "viability, T/C", "setting": "second compound 0.03 µM, first compound 0.1 µM", "result": 47.5, "unit": "%"},
      {"measurement": "viability, T/C", "setting": "second compound 0.03 µM, first compound 0.316 µM", "result": 46.9, "unit": "%"},
      {"measurement": "viability, T/C", "setting": "second compound 0.03 µM, first compound 1 µM", "result": 39.9, "unit": "%"},
      {"measurement": "viability, T/C", "setting": "second compound 0.03 µM, first compound 3.16 µM", "result": 45.5, "unit": "%"},
      {"measurement": "viability, T/C", "setting": "second compound 0.03 µM, first compound 10 µM", "result": 36.6, "unit": "%"},
      {"measurement": "viability, T/C", "setting": "second compound 0.0949 µM, first compound 0.0316 µM", "result": 38.9, "unit": "%"},
      {"measurement": "viability, T/C", "setting": "second compound 0.0949 µM, first compound 0.1 µM", "result": 37.5, "unit": "%"},
      {"measurement": "viability, T/C", "setting": "second compound 0.0949 µM, first compound 0.316 µM", "result": 40.6, "unit": "%"},
      {"measurement": "viability, T/C", "setting": "second compound 0.0949 µM, first compound 1 µM", "result": 40.3, "unit": "%"},
      {"measurement": "viability, T/C", "setting": "second compound 0.0949 µM, first compound 3.16 µM", "result": 44.2, "unit": "%"},
      {"measurement": "viability, T/C", "setting": "second compound 0.0949 µM, first compound 10 µM", "result": 46.6, "unit": "%"},
      {"measurement": "viability, T/C", "setting": "second compound 0.3 µM, first compound 0.0316 µM", "result": 36.7, "unit": "%"},
      {"measurement": "viability, T/C", "setting": "second compound 0.3 µM, first compound 0.1 µM", "result": 40.9, "unit": "%"},
      {"measurement": "viability, T/C", "setting": "second compound 0.3 µM, first compound 0.316 µM", "result": 47.3, "unit": "%"},
      {"measurement": "viability, T/C", "setting": "second compound 0.3 µM, first compound 1 µM", "result": 39.1, "unit": "%"},
      {"measurement": "viability, T/C", "setting": "second compound 0.3 µM, first compound 3.16 µM", "result": 44.7, "unit": "%"},
      {"measurement": "viability, T/C", "setting": "second compound 0.3 µM, first compound 10 µM", "result": 37.1, "unit": "%"}
    ]}
  ]
}
